Laboratory results as given in patent US9540385B2, “Pyrrolopyrimidine compounds as kinase inhibitors” (Pharmacyclics LLC, priority 2012, dated 2017).

Target: T1, BTK (Homo sapiens, UniProt Q06187)
T1 construct: purified from insect cells as a full-length construct containing a N-terminal 6×-His tag; His6 (N); made in house; host or cells: insect cells (baculovirus, Sf21)
Test: Btk in vitro inhibitory activity / inhibition of a panel of kinases (TR-FRET, mobility shift or radiometric filter binding)
Type: biochemical
Conditions: kinase assay by one of methods A, B or C
Description: Btk kinase activity is determined using a time-resolved fluorescence resonance energy transfer (TR-FRET) methodology. Measurements are performed in a reaction volume of 50 μL using 96-well assay plates. Kinase enzyme, inhibitor, ATP (at the Km for the kinase), and 1 μM peptide substrate (Biotin-AVLESEEELYSSARQ-NH2) are incubated in a reaction buffer composed of 20 mM Tris, 50 mM NaCl, MgCl2 (5-25 mM depending on the kinase), MnCl2 (0-10 mM), 1 mM DTT, 0.1 mM EDTA, 0.01% bovine serum albumin, 0.005% Tween-20, and 10% DMSO at pH 7.4 for one hour. The reaction is quenched by the addition of 1.2 equivalents of EDTA (relative to divalent cation) in 25 μL of 1× Lance buffer (Perkin-Elmer). Streptavidin-APC (Perkin-Elmer) and Eu-labeled p-Tyr100 antibody (Perkin-Elmer) in 1× Lance buffer are added in a 25 μL volume to give final concentrations of 100 nM and 2.5 nM, respectively, and the mixture is allowed to incubate for one hour. The TR-FRET signal is measured on a multimode plate reader with an excitation wavelength (λEx) of 330 nm and detection wavelengths (λEm) of 615 and 665 nm. Activity is determined by the ratio of the fluorescence at 665 nm to that at 615 nm. For each compound, enzyme activity is measured at various concentrations of compound. Negative control reactions are performed in the absence of inhibitor in replicates of six, and two no-enzyme controls are used to determine baseline fluorescence levels. Inhibition constants, Ki(app), ware obtained using the program BatchKi (Kuzmic et al. (2000), Anal. Biochem. 286:45-50). IC50s are obtained according to the equation: IC50={Ki(app)/(1+[ATP]/Km^ATP)}+[E]total/2;
For all kinases, [ATP]=Km^ATP, [Btk]total=0.5 nM and [Lck]total=6 nM.
Kinase activity is measured in vitro using electrophoretic mobility shift assay. The kinase reactions are assembled in a total volume of 25 μL in 384 well plates. The reactions comprise: BTK enzyme (1 nM, N-terminal His6-tagged, recombinant, full-length, human BTK purified from baculovirus Sf21 insect cell system), inhibitor, ATP ([…] the apparent Km for the kinase), fluorescently labeled peptide substrate (1 μM, FAM-GEEPLYWSFPAKKK-NH2) in a reaction buffer composed of 100 mM HEPES, pH7.5, 5 mM MgCl2 1 mM DTT, 0.1% bovine serum albumin, 0.01% Triton X-100, and 1% DMSO. The reaction is incubated for one hour and is quenched by the addition of 45 μL of termination buffer (100 mM HEPES, pH7.5, 0.01% Triton X-100, 30 mM EDTA). The terminated reactions are analyzed using 12 channel LabChip® 3000 microfluidic detection instrument (Caliper Life Sciences). The enzymatic phosphorylation of the peptide results in a change in net charge, enabling electrophoretic separation of product from substrate peptide. As substrate and product peptides are separated, two peaks of fluorescence are observed. Change in the relative fluorescence intensity of the substrate and product peaks is the parameter measured, reflecting enzyme activity. In the presence of an inhibitor, the ratio between product and substrate is altered: the signal of the product decreases, while the signal of the substrate increases.
Activity in each sample is determined as the product to sum ratio (PSR):P/(S+P), where P is the peak height of the product peptide and S is the peak height of the substrate peptide. For each compound, enzyme activity is measured at various concentrations (12 concentrations of compound spaced by 3× dilution intervals). Negative control samples (0%-inhibition in the absence of inhibitor) and positive control samples (100%-inhibition, in the presence of 20 mM EDTA) are assembled in replicates of four and are used to calculate %-inhibition values for each inhibitor at each concentration. Percent inhibition (Pinh) is determined using following equation: […]

T1 sequence (Q06187 whole entry): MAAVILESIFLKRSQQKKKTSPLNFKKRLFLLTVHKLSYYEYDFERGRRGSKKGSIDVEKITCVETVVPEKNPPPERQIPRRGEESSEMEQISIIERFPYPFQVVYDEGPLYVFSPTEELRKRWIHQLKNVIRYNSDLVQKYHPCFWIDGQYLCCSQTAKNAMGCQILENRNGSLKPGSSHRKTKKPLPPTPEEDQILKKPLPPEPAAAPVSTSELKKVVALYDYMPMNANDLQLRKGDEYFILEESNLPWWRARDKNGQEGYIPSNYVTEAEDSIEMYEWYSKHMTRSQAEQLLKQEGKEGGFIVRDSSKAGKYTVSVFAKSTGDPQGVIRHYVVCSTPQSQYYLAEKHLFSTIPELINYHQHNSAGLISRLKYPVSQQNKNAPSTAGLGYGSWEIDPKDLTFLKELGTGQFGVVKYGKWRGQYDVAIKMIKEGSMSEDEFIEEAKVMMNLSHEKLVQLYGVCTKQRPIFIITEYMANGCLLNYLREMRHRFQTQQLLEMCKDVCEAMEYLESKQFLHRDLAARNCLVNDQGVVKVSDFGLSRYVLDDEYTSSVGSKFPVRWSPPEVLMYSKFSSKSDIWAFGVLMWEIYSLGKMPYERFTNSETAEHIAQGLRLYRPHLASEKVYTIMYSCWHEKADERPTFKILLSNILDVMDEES

| SMILES | IC50 [nM] |
| --- | --- |
| CN(C/C=C/C(=O)N1CC[C@@H](n2c(C3CC3)c(-c3ccc(Oc4ccccc4)cc3)c3c(N)ncnc32)C1)C1CC1 [Compound 94, (R,E)-1-(3-(4-amino-6-cyclopropyl-5-(4-phenoxyphenyl)-7H-pyrrolo[2,3-d]pyrimidin-7-yl)pyrrolidin-1-yl)-4-(cyclopropyl(methyl)amino)but-2-en-1-one] | < 100 |
| COCCN(C)C/C=C/C(=O)N1CC[C@@H](n2c(F)c(-c3ccc(Oc4ccccc4)cc3)c3c(N)ncnc32)C1 [Compound 49, (R,E)-1-(3-(4-amino-6-fluoro-5-(4-phenoxyphenyl)-7H-pyrrolo[2,3-d]pyrimidin-7-yl)pyrrolidin-1-yl)-4-((2-methoxyethyl)(methyl)amino)but-2-en-1-one] | < 100 |
| CCc1c(-c2ccc(Oc3ccccc3)cc2)c2c(N)ncnc2n1[C@@H]1CCN(C(=O)/C=C/CN(C)C2CC2)C1 [Compound 115, (R,E)-1-(3-(4-amino-6-ethyl-5-(4-phenoxyphenyl)-7H-pyrrolo[2,3-d]pyrimidin-7-yl)pyrrolidin-1-yl)-4-(cyclopropyl(methyl)amino)but-2-en-1-one] | 100 to 1000 |
| CC(C)c1c(-c2ccc(Oc3ccccc3)cc2)c2c(N)ncnc2n1[C@@H]1CCN(C(=O)/C=C/CN(C)C2CC2)C1 [Compound 118, (R,E)-1-(3-(4-amino-6-isopropyl-5-(4-phenoxyphenyl)-7H-pyrrolo[2,3-d]pyrimidin-7-yl)pyrrolidin-1-yl)-4-(cyclopropyl(methyl)amino)but-2-en-1-one] | 100 to 1000 |
| COCCN(C/C=C/C(=O)N1CC[C@@H](n2c(C)c(-c3ccc(Oc4ccccc4)cc3)c3c(N)ncnc32)C1)CCOC [Compound 79, (R,E)-1-(3-(4-amino-6-methyl-5-(4-phenoxyphenyl)-7H-pyrrolo[2,3-d]pyrimidin-7-yl)pyrrolidin-1-yl)-4-(bis(2-methoxyethyl)amino)but-2-en-1-one] | < 100 |

The remaining lines, values ahead:

| IC50 [nM] | SMILES |
| --- | --- |
| < 100 | CN(C/C=C/C(=O)N1CC[C@@H](n2c(C#N)c(-c3ccc(Oc4ccccc4)cc3)c3c(N)ncnc32)C1)C1CC1 [Compound 103, (R,E)-4-amino-7-(1-(4-(cyclopropyl(methyl)amino)but-2-enoyl)pyrrolidin-3-yl)-5-(4-phenoxyphenyl)-7H-pyrrolo[2,3-d]pyrimidine-6-carbonitrile] |
| < 100 | CN(C/C=C/C(=O)N1CC[C@@H](n2c(C3CC3)c(-c3ccc(Oc4ccccc4)cc3)c3c(N)ncnc32)C1)[C@H]1CCOC1 [Compound 95, (E)-1-((R)-3-(4-amino-6-cyclopropyl-5-(4-phenoxyphenyl)-7H-pyrrolo[2,3-d]pyrimidin-7-yl)pyrrolidin-1-yl)-4-(methyl((S)-tetrahydrofuran-3-yl)amino)but-2-en-1-one] |
| < 100 | Cc1c(-c2ccc(Oc3ccccc3)cc2)c2c(N)ncnc2n1C1CCN(C(=O)/C=C/CN(C)C2CC2)CC1 [Compound 67, (E)-1-(4-(4-amino-6-methyl-5-(4-phenoxyphenyl)-7H-pyrrolo[2,3-d]pyrimidin-7-yl)piperidin-1-yl)-4-(cyclopropyl(methyl)amino)but-2-en-1-one] |
| < 100 | COCCN(C/C=C/C(=O)N1CC[C@@H](n2c(C#N)c(-c3ccc(Oc4ccccc4)cc3)c3c(N)ncnc32)C1)CCOC [Compound 105, (R,E)-4-amino-7-(1-(4-(bis(2-methoxyethyl)amino)but-2-enoyl)pyrrolidin-3-yl)-5-(4-phenoxyphenyl)-7H-pyrrolo[2,3-d]pyrimidine-6-carbonitrile] |
| < 100 | COc1c(-c2ccc(Oc3ccccc3)cc2)c2c(N)ncnc2n1[C@@H]1CCN(C(=O)/C=C/CN(C)C2CC2)C1 [Compound 89, (R,E)-1-(3-(4-amino-6-methoxy-5-(4-phenoxyphenyl)-7H-pyrrolo[2,3-d]pyrimidin-7-yl)pyrrolidin-1-yl)-4-(cyclopropyl(methyl)amino)but-2-en-1-one] |
